According to publication PMC6738068 (British Journal of Cancer, 2019):
“Also recorded” adds a separate entry of the source. Where two headings read alike, the source gives them in different places.

Columns and labels:
[1] = tested on: patients with advanced solid tumours
Description: A standard 3+3 dose-escalation scheme was used to identify the maximally tolerated dose (MTD) and RP2D.
Patients without evidence of high-grade neutropenia during this run-in period resumed daily dosing in standard 28-day cycles.
Select haematologic DLT included febrile neutropenia grade ≥3 and/or neutropenia grade ≥3 associated with infection or asymptomatic neutropenia grade ≥3 that persisted for >7 days. Use of haematopoietic growth factors (e.g. G-CSF, erythropoietin) in Cycle 1 was not permitted unless a DLT occurred.
The RP2D was based on the MTD established during dose escalation together with a comprehensive review of toxicities, PKs, and efficacy outcomes.
Dose escalations occurred in 100% increments for individual dosing cohorts up to 32 mg/day. Subsequent dose escalations continued in increments not exceeding 50%, depending on toxicities experienced, and with the approval of local Investigators and the external Medical Monitor.
Hematologic DLTs were defined as drug-related anemia grade ≥3; febrile neutropenia grade ≥3, and/or neutropenia grade ≥3 associated with infection; asymptomatic neutropenia grade ≥3 that persisted for >7 days; asymptomatic thrombocytopenia grade ≥3 that persisted for >7 days following treatment interruption; grade 3 thrombocytopenia associated with bleeding; or grade 4 thrombocytopenia.
Dose escalation decisions were made following the completion of Cycle 1 for all patients enrolled in a given dose level, taking into consideration adverse events (AE) and pharmacokinetic results.

[2] = tested on: PLK2; design: method as in printed; conditions: preclinical, ref not given; cited from earlier work
[3] = tested on: patient-derived xenograft (PDX) models across multiple tumour types; conditions: preclinical, including PDX models; cited from earlier work
[4] = tested on: P-glycoprotein; design: method as in printed; conditions: preclinical testing, ref not given; cited from earlier work
[5] = tested on: PLK3; design: method as in printed; conditions: preclinical, ref not given; cited from earlier work
[6] = Plasma pharmacokinetics in phase 1 patients; type: in vivo, human
Description: In the expansion cohort, blood samples were collected on Day 1 for Cycle 0 and Day 28 of Cycle 1. Additional samples were drawn prior to dosing on Day 15 of subsequent cycles.
Samples were analysed in accordance with all applicable United States Federal Drug Administration (FDA) and Organisation for Economic Co-operation and Development (OECD) regulations. […] After evaporation of the extraction solvent, sample extracts were reconstituted and analysed by reversed-phase high-performance liquid chromatography using a Waters Atlantis dC18 column. The mobile phase was nebulised using heated nitrogen in a Z-spray source/interface set to electrospray positive ionisation. The ionised compounds were detected using mass spectrometry. The lower limit of quantification was 20 pg/ml. Samples were analysed at Microconstants, San Diego, CA.

[7] = tested on: cytochrome P450 (CYP) enzyme 1A2; design: method as in printed; conditions: preclinical testing, ref not given; cited from earlier work
[8] = tested on: Abl [T315I]; design: method as in printed; conditions: preclinical, ref not given; cited from earlier work
[9] = tested on: OATP1B3; design: method as in printed; conditions: preclinical testing, ref not given; cited from earlier work
[10] = tested on: CYP1A2; design: method as in printed; conditions: preclinical testing, ref not given; cited from earlier work
[11] = tested on: TrkB; design: method as in printed; conditions: preclinical, ref not given; cited from earlier work
[12] = tested on: TrkA; design: method as in printed; conditions: preclinical, ref not given; cited from earlier work
[13] = tested on: Ros; design: method as in printed; conditions: preclinical, ref not given; cited from earlier work
[14] = tested on: FGFR2; design: method as in printed; conditions: preclinical, ref not given; cited from earlier work
[15] = tested on: PLK1; design: method as in printed; conditions: preclinical, ref not given; cited from earlier work
[16] = tested on: BCRP; design: method as in printed; conditions: preclinical testing, ref not given; cited from earlier work
[17] = oral daily 72 mg (n = 6; one patient removed, not DLT evaluable)

COc1ccc2c(c1)[C@]1(C[C@H]1c1ccc3c(/C=C/c4ccc(CN5C[C@@H](C)O[C@@H](C)C5)cc4)n[nH]c3c1)C(=O)N2 [CFI-400945]
DLT events ([1]; 64 mg dose escalation, 6 patients): no DLT events | patients with a DLT event ([1]; 64 mg dose level, escalation plus expansion): 1/15 | DLT event in dose expansion ([1]; 64 mg expansion, Cycle 1 Day 15): One patient experienced grade 4 febrile neutropenia | tolerability ([1]; 64 mg, continuous daily dosing): well tolerated; also recorded: tolerable | DLT events ([1]; 72 mg (7 total), Cycle 1): Two patients experienced DLT events | tolerability ([1]; 96 mg daily): intolerable | DLT events ([1]; 96 mg, Cycle 1): one DLT (grade 3 febrile neutropenia) | Total number of patients with DLT, all dosages ([1]; 3-96 mg (n = 48)): 4 | DLT description, grade 3 ([1]; all dose levels (n = 48)): Neutropenia, febrile neutropenia | DLT description, grade 4 ([1]; all dose levels (n = 48)): Febrile neutropenia, lipase elevated | recommended phase 2 dose (RP2D) ([1]; continuous daily oral dosing): 64 mg | principal DLT ([1]; continuous dosing schedule): Neutropenia | Total number of patients with DLT at each dosage ([1]; oral daily 3 mg (n = 3)): 0 | patients with DLT, grade 1 ([1]; oral daily 3 mg (n = 3)): 0 | patients with DLT, grade 2 ([1]; oral daily 3 mg (n = 3)): 0 | patients with DLT, grade 3, number (%) ([1]; oral daily 3 mg (n = 3)): 0 | patients with DLT, grade 4, number (%) ([1]; oral daily 3 mg (n = 3)): 0 | patients with DLT, grade 5 ([1]; oral daily 3 mg (n = 3)): 0 | Total number of patients with DLT at each dosage ([1]; oral daily 6 mg (n = 3)): 0 | patients with DLT, grade 1 ([1]; oral daily 6 mg (n = 3)): 0 | patients with DLT, grade 2 ([1]; oral daily 6 mg (n = 3)): 0 | patients with DLT, grade 3, number (%) ([1]; oral daily 6 mg (n = 3)): 0 | patients with DLT, grade 4, number (%) ([1]; oral daily 6 mg (n = 3)): 0 | patients with DLT, grade 5 ([1]; oral daily 6 mg (n = 3)): 0 | Total number of patients with DLT at each dosage ([1]; oral daily 11 mg (n = 3)): 0 | patients with DLT, grade 1 ([1]; oral daily 11 mg (n = 3)): 0 | patients with DLT, grade 2 ([1]; oral daily 11 mg (n = 3)): 0 | patients with DLT, grade 3, number (%) ([1]; oral daily 11 mg (n = 3)): 0 | patients with DLT, grade 4, number (%) ([1]; oral daily 11 mg (n = 3)): 0 | patients with DLT, grade 5 ([1]; oral daily 11 mg (n = 3)): 0 | Total number of patients with DLT at each dosage ([1]; oral daily 16 mg (n = 3)): 0 | patients with DLT, grade 1 ([1]; oral daily 16 mg (n = 3)): 0 | patients with DLT, grade 2 ([1]; oral daily 16 mg (n = 3)): 0 | patients with DLT, grade 3, number (%) ([1]; oral daily 16 mg (n = 3)): 0 | patients with DLT, grade 4, number (%) ([1]; oral daily 16 mg (n = 3)): 0 | patients with DLT, grade 5 ([1]; oral daily 16 mg (n = 3)): 0 | Total number of patients with DLT at each dosage ([1]; oral daily 24 mg (n = 3)): 0 | patients with DLT, grade 1 ([1]; oral daily 24 mg (n = 3)): 0 | patients with DLT, grade 2 ([1]; oral daily 24 mg (n = 3)): 0 | patients with DLT, grade 3, number (%) ([1]; oral daily 24 mg (n = 3)): 0 | patients with DLT, grade 4, number (%) ([1]; oral daily 24 mg (n = 3)): 0 | patients with DLT, grade 5 ([1]; oral daily 24 mg (n = 3)): 0 | Total number of patients with DLT at each dosage ([1]; oral daily 32 mg (n = 3)): 0 | patients with DLT, grade 1 ([1]; oral daily 32 mg (n = 3)): 0 | patients with DLT, grade 2 ([1]; oral daily 32 mg (n = 3)): 0 | patients with DLT, grade 3, number (%) ([1]; oral daily 32 mg (n = 3)): 0 | patients with DLT, grade 4, number (%) ([1]; oral daily 32 mg (n = 3)): 0 | patients with DLT, grade 5 ([1]; oral daily 32 mg (n = 3)): 0 | Total number of patients with DLT at each dosage ([1]; oral daily 48 mg (n = 3)): 0 | patients with DLT, grade 1 ([1]; oral daily 48 mg (n = 3)): 0 | patients with DLT, grade 2 ([1]; oral daily 48 mg (n = 3)): 0 | patients with DLT, grade 3, number (%) ([1]; oral daily 48 mg (n = 3)): 0 | patients with DLT, grade 4, number (%) ([1]; oral daily 48 mg (n = 3)): 0 | patients with DLT, grade 5 ([1]; oral daily 48 mg (n = 3)): 0 | Total number of patients with DLT at each dosage ([1]; oral daily 64 mg (n = 15)): 1 | patients with DLT, grade 1 ([1]; oral daily 64 mg (n = 15)): 0 | patients with DLT, grade 2 ([1]; oral daily 64 mg (n = 15)): 0 | patients with DLT, grade 3, number (%) ([1]; oral daily 64 mg (n = 15)): 0 | patients with DLT, grade 4, number (%) ([1]; oral daily 64 mg (n = 15)): 1 (6.7) | patients with DLT, grade 5 ([1]; oral daily 64 mg (n = 15)): 0 | Total number of patients with DLT at each dosage [1, 17]: 2 | patients with DLT, grade 1 [1, 17]: 0 | patients with DLT, grade 2 [1, 17]: 0 | patients with DLT, grade 3, number (%) [1, 17]: 1 (16.7) | patients with DLT, grade 4, number (%) [1, 17]: 1 (16.7) | patients with DLT, grade 5 [1, 17]: 0 | Total number of patients with DLT at each dosage ([1]; oral daily 96 mg (n = 6)): 1 | patients with DLT, grade 1 ([1]; oral daily 96 mg (n = 6)): 0 | patients with DLT, grade 2 ([1]; oral daily 96 mg (n = 6)): 0 | patients with DLT, grade 3, number (%) ([1]; oral daily 96 mg (n = 6)): 1 (16.7) | patients with DLT, grade 4, number (%) ([1]; oral daily 96 mg (n = 6)): 0 | patients with DLT, grade 5 ([1]; oral daily 96 mg (n = 6)): 0 | IC50 [2]: > 50000 nM | in vivo antitumour activity [3]: robust in vivo antitumour activity | inhibition of P-glycoprotein [4]: inhibitor | IC50 [5]: > 50000 nM | dose proportionality of exposure ([6]; 3-96 mg): generally dose proportional | exposure at Day 28 higher than exposure at Day 1, average ([6]; across all dose levels): 37% | AUC(0-t) ([6]; human, plasma, oral, 64 mg, Day 1, read-out: AUC0–24 h): 428 ng·h/mL | Cmax ([6]; human, plasma, oral, 64 mg, Day 1, read-out: average Cmax): 37 ng/mL | AUC(0-t) ([6]; human, plasma, oral, 64 mg, after 28 days of dosing, read-out: AUC0–24 h): 564 ng·h/mL | Cmax ([6]; human, plasma, oral, 64 mg, after 28 days of dosing, read-out: average Cmax): 44 ng/mL | AUC(0-t) ([6]; human, plasma, oral, Day 1, read-out: AUC0–24 h values associated with grade 3/4 neutropenia): > 400 ng·h/mL | Cmax ([6]; human, plasma, oral, Day 1, read-out: Cmax values associated with grade 3/4 neutropenia): ≥ 38 ng/mL | half-life ([6]; human, plasma, oral, 64 mg, Day 1, read-out: half-life (t1/2) (converted)): 9 h | time to maximum plasma concentration (Cmax) after dosing ([6]; oral, fasting state): 2 to 4 h | induction of CYP1A2 [7]: inducer | IC50 [8]: < 100 nM | inhibition of OATP1B3 [9]: inhibitor | time-dependent inhibition of CYP1A2 [10]: time-dependent inhibitor | IC50 [11]: < 100 nM | IC50 [12]: < 100 nM | IC50 [13]: < 100 nM | IC50 [14]: < 100 nM | IC50 [15]: > 50000 nM | inhibition of BCRP [16]: inhibitor
